Measured values from patent US9409905B2, “Antibacterial compounds and methods for use” (PTC THERAPEUTICS, INC., priority 2011, dated 2016).
≈ marks a conversion by molar mass, not a printed value.

Key:
E. coli LZ3111 = test: Antibacterial activity, MIC, quinolone resistant strain (Table 2); format: cell-based; details: Escherichia coli, LZ3111, read-out: MIC LZ3111
Outline: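 Growth inhibition assessed by serial drug dilution in broth; endpoint was absence of macroscopically visible growth, reported as MIC, μg/mL.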

E. coli 25922 = test: Antibacterial activity, microbroth dilution MIC (Table 1); format: cell-based, Escherichia coli; details: Escherichia coli; microbroth dilution; control Gram-negative E. coli 25922 strain; read-out: MIC, 25922
Outline: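 In a microbroth dilution test, the minimum inhibitory concentration was defined as the lowest compound level preventing growth seen by eye, and was given in μg/mL.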

[1] = test system: Escherichia coli (E. coli) BAS849; test: as above; format: cell-based; details: microbroth dilution, super sensitive Gram-negative E. coli BAS849, read-out: MIC, BAS849
Outline: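 Using broth microdilution, MIC endpoints (μg/mL) mark where visible growth no longer appears; the panel spans sensitive and control Gram-negative strains plus a Gram-positive strain.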

[2] = test system: Staphylococcus aureus (S. aureus) 29213; test: as above; format: cell-based; details: microbroth dilution, Gram-positive S. aureus 29213, read-out: MIC, 29213
Outline: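 Microbroth dilution was used. MIC, in μg/mL, is the lowest drug concentration preventing macroscopically visible growth under the test conditions.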

[3] = test system: Pseudomonas aeruginosa (P. aeruginosa) 27853; test: Antibacterial activity, MIC (Table 5); format: cell-based; details: P. aeruginosa 27853, read-out: MIC, 27853
Outline: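 Using a microbroth dilution format, the minimum inhibitory concentration was recorded as the lowest tested concentration that stopped visible bacterial growth, expressed in μg/mL.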

[4] = test system: Klebsiella pneumoniae (K. pneumoniae) 35657; test: Antibacterial activity, MIC (Table 4); format: cell-based; details: K. pneumoniae 35657, read-out: MIC, 35657
Outline: (§1)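 Broth microdilution; MIC (μg/mL) = lowest concentration with no macroscopically visible growth. Resistant strains: multi-drug resistant clinical isolates.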

[5] = test system: Acinetobacter baumannii (A. baumannii) BAA747; test: Antibacterial activity, MIC (Table 4); format: cell-based; details: A. baumannii BAA747, read-out: MIC, BAA747
Outline: as §1

K. pneumoniae MXX1232 = test: Antibacterial activity, MIC, resistant strain (Table 4); format: cell-based; details: Klebsiella pneumoniae, MXX1232; resistant K. pneumoniae MMX1232, multi-drug resistant clinical isolate; read-out: MIC, MMX1232
Outline: as §1

A. baumannii MXX2240 = test: as above; format: cell-based; details: Acinetobacter baumannii, MXX2240; resistant A. baumannii MMX2240, multi-drug resistant clinical isolate; read-out: MIC, MMX2240
Outline: as §1

SMILES	MIC (E. coli LZ3111)	MIC (E. coli 25922)	MIC [1]	MIC [2]	MIC [3]	MIC [4]	MIC [5]	MIC (K. pneumoniae MXX1232)	MIC (A. baumannii MXX2240)
Cc1c(-c2ccc3c(c2)cc(CN)n3C)[nH]c(=O)c(C(=O)O)c1O [Cpd 358, 6-(2-(aminomethyl)-1-methyl-1H-indol-5-yl)-4-hydroxy-5-methyl-2-oxo-1,2-dihydropyridine-3-carboxylic acid]	1 to 3.5 µg/mL (≈ 3.05 to 10.7 µM)	3.5 to 12.5 µg/mL (≈ 10.7 to 38.2 µM)	1 to 3.5 µg/mL (≈ 3.05 to 10.7 µM)	12.5 to 150 µg/mL (≈ 38.2 to 458 µM)	12.5 to 150 µg/mL (≈ 38.2 to 458 µM)	1 to 3.5 µg/mL (≈ 3.05 to 10.7 µM)	12.5 to 150 µg/mL (≈ 38.2 to 458 µM)	12.5 to 150 µg/mL (≈ 38.2 to 458 µM)	3.5 to 12.5 µg/mL (≈ 10.7 to 38.2 µM)
Cc1c(-c2ccc3cnn(C)c3c2)[nH]c(=O)c(C(=O)O)c1O [Cpd 396, 4-hydroxy-5-methyl-6-(1-methyl-1H-indazol-6-yl)-2-oxo-1,2-dihydropyridine-3-carboxylic acid]	1 to 3.5 µg/mL (≈ 3.34 to 11.7 µM)	12.5 to 150 µg/mL (≈ 41.8 to 501 µM)	12.5 to 150 µg/mL (≈ 41.8 to 501 µM)	12.5 to 150 µg/mL (≈ 41.8 to 501 µM)	12.5 to 150 µg/mL (≈ 41.8 to 501 µM)	12.5 to 150 µg/mL (≈ 41.8 to 501 µM)	12.5 to 150 µg/mL (≈ 41.8 to 501 µM)	12.5 to 150 µg/mL (≈ 41.8 to 501 µM)	3.5 to 12.5 µg/mL (≈ 11.7 to 41.8 µM)
CCc1c(-c2cc3cc(F)ccc3[nH]2)[nH]c(=O)c(C(=O)O)c1O [Cpd 380, 5-ethyl-6-(5-fluoro-1H-indol-2-yl)-4-hydroxy-2-oxo-1,2-dihydropyridine-3-carboxylic acid]	12.5 to 150 µg/mL (≈ 39.5 to 474 µM)	12.5 to 150 µg/mL (≈ 39.5 to 474 µM)	3.5 to 12.5 µg/mL (≈ 11.1 to 39.5 µM)	12.5 to 150 µg/mL (≈ 39.5 to 474 µM)	12.5 to 150 µg/mL (≈ 39.5 to 474 µM)	12.5 to 150 µg/mL (≈ 39.5 to 474 µM)	12.5 to 150 µg/mL (≈ 39.5 to 474 µM)	12.5 to 150 µg/mL (≈ 39.5 to 474 µM)	12.5 to 150 µg/mL (≈ 39.5 to 474 µM)
CCc1c(-c2ccc3c(c2)c(F)c(CNC(C)(C)C)n3C)[nH]c(=O)c(C(=O)O)c1O [Cpd 371, 6-(2-((tert-butylamino)methyl)-3-fluoro-1-methyl-1H-indol-5-yl)-5-ethyl-4-hydroxy-2-oxo-1,2-dihydropyridine-3-carboxylic acid]	12.5 to 150 µg/mL (≈ 30.1 to 361 µM)	1 to 3.5 µg/mL (≈ 2.41 to 8.42 µM)	< 1 µg/mL	12.5 to 150 µg/mL (≈ 30.1 to 361 µM)	12.5 to 150 µg/mL (≈ 30.1 to 361 µM)	1 to 3.5 µg/mL (≈ 2.41 to 8.42 µM)	3.5 to 12.5 µg/mL (≈ 8.42 to 30.1 µM)	12.5 to 150 µg/mL (≈ 30.1 to 361 µM)	3.5 to 12.5 µg/mL (≈ 8.42 to 30.1 µM)
Cc1c(-c2ccc3cc[nH]c3n2)[nH]c(=O)c(C(=O)O)c1O [Cpd 434, 4-hydroxy-5-methyl-2-oxo-6-(1H-pyrrolo[2,3-b]pyridin-6-yl)-1,2-dihydropyridine-3-carboxylic acid]	12.5 to 150 µg/mL (≈ 43.8 to 526 µM)	12.5 to 150 µg/mL (≈ 43.8 to 526 µM)	12.5 to 150 µg/mL (≈ 43.8 to 526 µM)	12.5 to 150 µg/mL (≈ 43.8 to 526 µM)	12.5 to 150 µg/mL (≈ 43.8 to 526 µM)	12.5 to 150 µg/mL (≈ 43.8 to 526 µM)	12.5 to 150 µg/mL (≈ 43.8 to 526 µM)	12.5 to 150 µg/mL (≈ 43.8 to 526 µM)	12.5 to 150 µg/mL (≈ 43.8 to 526 µM)
CCCNCc1cc2cc(-c3[nH]c(=O)c(C(=O)O)c(O)c3C)ccc2n1C [Cpd 352, 4-hydroxy-5-methyl-6-(1-methyl-2-((propylamino)methyl)-1H-indol-5-yl)-2-oxo-1,2-dihydropyridine-3-carboxylic acid]	< 1 µg/mL	3.5 to 12.5 µg/mL (≈ 9.47 to 33.8 µM)	< 1 µg/mL	12.5 to 150 µg/mL (≈ 33.8 to 406 µM)	12.5 to 150 µg/mL (≈ 33.8 to 406 µM)	1 to 3.5 µg/mL (≈ 2.71 to 9.47 µM)	3.5 to 12.5 µg/mL (≈ 9.47 to 33.8 µM)	12.5 to 150 µg/mL (≈ 33.8 to 406 µM)	1 to 3.5 µg/mL (≈ 2.71 to 9.47 µM)
CCc1c(-c2ccc3c(c2)cc2n3CC(N(C)CC)C2)[nH]c(=O)c(C(=O)O)c1O (stereo not drawn) [Cpd 419, 5-ethyl-6-(2-(ethyl(methyl)amino)-2,3-dihydro-1H-pyrrolo[1,2-a]indol-7-yl)-4-hydroxy-2-oxo-1,2-dihydropyridine-3-carboxylic acid]	1 to 3.5 µg/mL (≈ 2.53 to 8.85 µM)	3.5 to 12.5 µg/mL (≈ 8.85 to 31.6 µM)	< 1 µg/mL	3.5 to 12.5 µg/mL (≈ 8.85 to 31.6 µM)	12.5 to 150 µg/mL (≈ 31.6 to 379 µM)	3.5 to 12.5 µg/mL (≈ 8.85 to 31.6 µM)	3.5 to 12.5 µg/mL (≈ 8.85 to 31.6 µM)	12.5 to 150 µg/mL (≈ 31.6 to 379 µM)	3.5 to 12.5 µg/mL (≈ 8.85 to 31.6 µM)
